From patent publication EP4745137A1 (Gluetacs Therapeutics (Shanghai) Co., Ltd., priority 2023, dated 2025)

Columns and labels:
IKZF1 = target: T1, IKZF1 (Homo sapiens, UniProt Q13422+Q96SW2); test: Western-blot assay of substrate protein degradation in hPBMCs, IKZF1; assay type: cell-based; settings: 24 hours of compound treatment
T1 construct: endogenous in cells; host or cells: hPBMCs (Milecell Biotechnologies)

WEE1 = target: T2, WEE1 (Homo sapiens, UniProt P30291+Q96SW2); test: Western-blot assay of substrate protein degradation in hPBMCs, WEE1; assay type: cell-based; settings: 24 hours of compound treatment
T2 construct: endogenous in cells; host or cells: hPBMCs (Milecell Biotechnologies)

IKZF3 = target: T3, IKZF3 (Homo sapiens, UniProt Q96SW2+Q9UKT9); test: Western-blot assay of substrate protein degradation in hPBMCs, IKZF3; assay type: cell-based; settings: 24 hours of compound treatment
T3 construct: endogenous in cells; host or cells: hPBMCs (Milecell Biotechnologies)

GSPT1 = target: T4, GSPT1 (Homo sapiens, UniProt P15170+Q96SW2); test: Western-blot assay of substrate protein degradation in hPBMCs, GSPT1; assay type: cell-based; settings: 24 hours of compound treatment
T4 construct: endogenous in cells; host or cells: hPBMCs (Milecell Biotechnologies)

IKZF2 = target: T5, IKZF2 (Homo sapiens, UniProt Q96SW2+Q9UKS7); test: Western-blot assay of substrate protein degradation in hPBMCs, IKZF2; assay type: cell-based; settings: 24 hours of compound treatment
T5 construct: endogenous in cells; host or cells: hPBMCs (Milecell Biotechnologies)

MM.1S = test: Tumor cell proliferation inhibition (CellTiter-Meiluncell Luminescent Cell Viability Assay), MM.1S; settings: Homo sapiens, MM1.S, read-out: inhibitory activity (IC50, nM) against tumor cells proliferation, MM.1S
Experimental: (§1) The tumor cells used herein were cultured in a cell culture medium listed in table 2 at 37°C in an incubator with 5% CO2. Prior to experimentation, all cell lines used were correctly identified by STR profiling, and tested negative for mycoplasma contamination using a mycoplasma detection kit through routine screenings.
(§2) On the following day, the test compounds of the present disclosure were subjected to serial dilution. […] Subsequently, 0.5 µL of the test compound dilution was transferred into the 96-well plate containing the cells, with each well containing 100 µL of cell culture medium. […] Into the 96-well plate, the diluted test compounds and corresponding detection reagents were added, resulting in final test compound concentrations of 500 nM and 10 nM, respectively.
(§3) After the cells were treated with the compounds of the present disclosure for a specified period (the treatment durations were shown in Table 3), the cell viability assay reagent was added to the culture medium according to the kit's instructions to determine cell viability. […] All controls were treated using the same procedure as the compounds of the present disclosure. The growth inhibition curves for the compounds of the present disclosure were plotted using Prism GraphPad software, and the IC50 values were calculated therefrom.

[1] = target: T6, human Cereblon WT GST-tagged protein (Homo sapiens, UniProt Q96SW2); test: CRBN-binding affinity by HTRF (CEREBLON BINDING kit); settings: HTRF inhibitory activity, CEREBLON BINDING kit; read-out: HTRF IC50
T6 construct: purchased CISBIO 64BDCRBNPEH

CK1α = target: T7, CK1α (Homo sapiens, UniProt P48729+Q96SW2); test: Western-blot assay of substrate protein degradation in hPBMCs, CK1α; assay type: cell-based; settings: 24 hours of compound treatment
T7 construct: endogenous in cells; host or cells: hPBMCs (Milecell Biotechnologies)

CCRF-CEM = test: Tumor cell proliferation inhibition (CellTiter-Meiluncell Luminescent Cell Viability Assay), CCRF-CEM; settings: Homo sapiens, read-out: inhibitory activity (IC50, nM) against tumor cells proliferation, CCRF-CEM
[2] = test system: Human acute T lymphocytic leukemia cells (Molt-4); test: Tumor cell proliferation inhibition (CellTiter-Meiluncell Luminescent Cell Viability Assay), Molt-4; settings: MOLT-4, read-out: inhibitory activity (IC50, nM) against tumor cells proliferation, Molt-4
Experimental: as §1
On the following day, the test compounds of the present disclosure were subjected to serial dilution. […] Subsequently, 0.5 µL of the test compound dilution was transferred into the 96-well plate containing the cells, with each well containing 100 µL of cell culture medium. […] Into the 96-well plate, the diluted test compounds and corresponding detection reagents were added, resulting in final test compound concentrations of 500 nM and 10 nM, respectively. The experimental procedure is described below using the diluted 2 µM test compound as an example.
as §3

MV-4-11 = test: Tumor cell proliferation inhibition (CellTiter-Meiluncell Luminescent Cell Viability Assay), MV-4-11; settings: Homo sapiens, MV4-11, read-out: inhibitory activity (IC50, nM) against tumor cells proliferation, MV-4-11
Experimental: as §1, §2, §3

Jurkat = test: Tumor cell proliferation inhibition (CellTiter-Meiluncell Luminescent Cell Viability Assay), Jurkat; settings: Homo sapiens, read-out: inhibitory activity (IC50, nM) against tumor cells proliferation, Jurkat
[3] = compounds tested at 50 nM and 500 nM (concentration of the table not stated)
[4] = 50 nM and 500 nM tested (concentration behind the class not stated)

T5 sequence (Q9UKS7 whole entry): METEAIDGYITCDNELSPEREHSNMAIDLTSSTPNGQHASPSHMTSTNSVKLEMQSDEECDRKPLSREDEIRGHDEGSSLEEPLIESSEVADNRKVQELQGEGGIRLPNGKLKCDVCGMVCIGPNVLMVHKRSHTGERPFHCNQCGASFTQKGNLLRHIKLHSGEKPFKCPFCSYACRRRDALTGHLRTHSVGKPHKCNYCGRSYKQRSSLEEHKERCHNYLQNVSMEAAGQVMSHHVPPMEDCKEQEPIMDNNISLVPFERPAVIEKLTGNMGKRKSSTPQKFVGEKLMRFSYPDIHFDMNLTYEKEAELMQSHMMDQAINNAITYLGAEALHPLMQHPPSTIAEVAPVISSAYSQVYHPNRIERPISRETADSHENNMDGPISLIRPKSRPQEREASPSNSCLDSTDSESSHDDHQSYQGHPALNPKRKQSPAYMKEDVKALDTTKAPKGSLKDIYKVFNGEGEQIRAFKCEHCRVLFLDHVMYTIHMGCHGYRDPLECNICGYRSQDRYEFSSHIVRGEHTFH
T5 sequence (Q96SW2 whole entry): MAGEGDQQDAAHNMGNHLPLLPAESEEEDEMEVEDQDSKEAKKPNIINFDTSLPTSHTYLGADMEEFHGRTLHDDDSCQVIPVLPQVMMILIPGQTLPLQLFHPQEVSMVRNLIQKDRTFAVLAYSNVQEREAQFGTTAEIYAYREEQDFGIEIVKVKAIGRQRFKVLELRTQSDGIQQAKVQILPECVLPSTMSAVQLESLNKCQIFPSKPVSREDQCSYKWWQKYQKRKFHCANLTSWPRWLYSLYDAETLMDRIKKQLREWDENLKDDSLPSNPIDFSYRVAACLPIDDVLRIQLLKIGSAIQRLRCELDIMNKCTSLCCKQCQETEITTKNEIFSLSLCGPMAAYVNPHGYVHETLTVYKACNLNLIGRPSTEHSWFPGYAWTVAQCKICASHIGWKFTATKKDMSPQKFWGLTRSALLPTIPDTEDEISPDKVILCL
T5 sequence (Q16531 whole entry partner): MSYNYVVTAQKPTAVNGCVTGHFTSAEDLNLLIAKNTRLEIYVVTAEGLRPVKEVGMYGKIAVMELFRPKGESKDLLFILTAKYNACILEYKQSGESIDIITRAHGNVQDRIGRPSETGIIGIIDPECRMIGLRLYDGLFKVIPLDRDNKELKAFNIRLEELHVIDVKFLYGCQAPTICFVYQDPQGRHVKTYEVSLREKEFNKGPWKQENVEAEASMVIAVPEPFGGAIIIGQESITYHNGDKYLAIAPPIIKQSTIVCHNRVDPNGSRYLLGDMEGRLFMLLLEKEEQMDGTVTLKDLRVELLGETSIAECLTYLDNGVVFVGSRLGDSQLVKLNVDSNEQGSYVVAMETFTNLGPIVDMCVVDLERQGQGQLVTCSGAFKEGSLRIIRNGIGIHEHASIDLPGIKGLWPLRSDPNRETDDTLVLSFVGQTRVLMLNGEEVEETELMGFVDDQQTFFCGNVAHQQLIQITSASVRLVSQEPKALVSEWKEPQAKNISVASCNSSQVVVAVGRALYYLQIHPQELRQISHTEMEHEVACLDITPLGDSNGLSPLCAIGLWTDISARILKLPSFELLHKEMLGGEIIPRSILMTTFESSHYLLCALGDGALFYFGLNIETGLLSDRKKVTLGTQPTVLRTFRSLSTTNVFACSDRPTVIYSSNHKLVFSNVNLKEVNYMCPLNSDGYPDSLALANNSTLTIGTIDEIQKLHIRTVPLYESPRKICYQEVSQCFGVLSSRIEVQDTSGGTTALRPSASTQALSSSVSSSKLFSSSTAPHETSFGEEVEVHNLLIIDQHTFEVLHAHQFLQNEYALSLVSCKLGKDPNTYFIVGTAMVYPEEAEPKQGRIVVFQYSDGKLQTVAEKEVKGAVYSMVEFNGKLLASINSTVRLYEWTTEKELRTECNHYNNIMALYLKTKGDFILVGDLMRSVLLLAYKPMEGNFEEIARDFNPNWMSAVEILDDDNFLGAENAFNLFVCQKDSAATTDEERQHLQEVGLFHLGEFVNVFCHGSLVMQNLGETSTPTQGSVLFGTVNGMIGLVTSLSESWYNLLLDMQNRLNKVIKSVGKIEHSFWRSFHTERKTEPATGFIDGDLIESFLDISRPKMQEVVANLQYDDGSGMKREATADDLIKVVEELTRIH
T6 sequence (Q96SW2 whole entry): as the sequence (Q96SW2 whole entry) above
T7 sequence (P48729 whole entry): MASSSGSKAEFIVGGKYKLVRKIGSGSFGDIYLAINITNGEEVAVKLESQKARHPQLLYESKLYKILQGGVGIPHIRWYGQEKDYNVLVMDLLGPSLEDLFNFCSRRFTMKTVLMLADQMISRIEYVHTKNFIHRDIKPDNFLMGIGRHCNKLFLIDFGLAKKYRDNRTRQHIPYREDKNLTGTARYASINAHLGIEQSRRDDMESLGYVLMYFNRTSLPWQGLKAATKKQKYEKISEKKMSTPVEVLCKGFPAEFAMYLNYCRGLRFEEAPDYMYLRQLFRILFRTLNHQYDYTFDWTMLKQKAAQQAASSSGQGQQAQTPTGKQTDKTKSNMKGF
T7 sequence (Q96SW2 whole entry): as the sequence (Q96SW2 whole entry) above
T7 sequence (Q16531 whole entry partner): as the sequence (Q16531 whole entry partner) above
T2 sequence (P30291 whole entry): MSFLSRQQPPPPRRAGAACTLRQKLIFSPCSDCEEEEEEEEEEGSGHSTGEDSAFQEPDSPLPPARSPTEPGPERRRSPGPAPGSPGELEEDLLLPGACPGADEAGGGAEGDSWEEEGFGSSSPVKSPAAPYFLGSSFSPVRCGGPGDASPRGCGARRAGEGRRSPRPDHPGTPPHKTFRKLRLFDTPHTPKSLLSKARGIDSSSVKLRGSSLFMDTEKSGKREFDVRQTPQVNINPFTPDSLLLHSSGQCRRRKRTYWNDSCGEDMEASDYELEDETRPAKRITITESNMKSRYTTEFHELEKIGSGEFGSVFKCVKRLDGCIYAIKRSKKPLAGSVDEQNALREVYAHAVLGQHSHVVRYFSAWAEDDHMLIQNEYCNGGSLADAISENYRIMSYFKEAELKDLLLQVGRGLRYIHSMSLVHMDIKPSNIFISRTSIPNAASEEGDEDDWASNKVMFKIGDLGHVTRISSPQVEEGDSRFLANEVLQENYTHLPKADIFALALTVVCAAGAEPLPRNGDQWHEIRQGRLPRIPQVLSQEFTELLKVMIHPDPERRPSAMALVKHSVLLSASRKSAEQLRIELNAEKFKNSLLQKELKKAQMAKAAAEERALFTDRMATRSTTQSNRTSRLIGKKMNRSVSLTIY
T2 sequence (Q96SW2 whole entry): as the sequence (Q96SW2 whole entry) above
T2 sequence (Q16531 whole entry partner): as the sequence (Q16531 whole entry partner) above
T3 sequence (Q9UKT9 whole entry): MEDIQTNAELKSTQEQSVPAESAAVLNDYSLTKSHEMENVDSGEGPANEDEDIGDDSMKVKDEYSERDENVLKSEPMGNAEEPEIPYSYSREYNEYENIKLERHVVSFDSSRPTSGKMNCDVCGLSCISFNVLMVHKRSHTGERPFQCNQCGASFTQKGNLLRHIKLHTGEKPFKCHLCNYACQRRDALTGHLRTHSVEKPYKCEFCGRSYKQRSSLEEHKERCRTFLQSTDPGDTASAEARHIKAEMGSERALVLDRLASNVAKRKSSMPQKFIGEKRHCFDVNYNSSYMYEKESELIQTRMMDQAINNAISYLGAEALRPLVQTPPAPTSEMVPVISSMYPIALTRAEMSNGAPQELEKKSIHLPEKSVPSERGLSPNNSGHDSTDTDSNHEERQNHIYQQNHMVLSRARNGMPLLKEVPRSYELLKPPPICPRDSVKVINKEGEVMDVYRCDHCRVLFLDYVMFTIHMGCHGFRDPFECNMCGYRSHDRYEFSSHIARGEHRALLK
T3 sequence (Q96SW2 whole entry): as the sequence (Q96SW2 whole entry) above
T3 sequence (Q16531 whole entry partner): as the sequence (Q16531 whole entry partner) above
T4 sequence (P15170 whole entry): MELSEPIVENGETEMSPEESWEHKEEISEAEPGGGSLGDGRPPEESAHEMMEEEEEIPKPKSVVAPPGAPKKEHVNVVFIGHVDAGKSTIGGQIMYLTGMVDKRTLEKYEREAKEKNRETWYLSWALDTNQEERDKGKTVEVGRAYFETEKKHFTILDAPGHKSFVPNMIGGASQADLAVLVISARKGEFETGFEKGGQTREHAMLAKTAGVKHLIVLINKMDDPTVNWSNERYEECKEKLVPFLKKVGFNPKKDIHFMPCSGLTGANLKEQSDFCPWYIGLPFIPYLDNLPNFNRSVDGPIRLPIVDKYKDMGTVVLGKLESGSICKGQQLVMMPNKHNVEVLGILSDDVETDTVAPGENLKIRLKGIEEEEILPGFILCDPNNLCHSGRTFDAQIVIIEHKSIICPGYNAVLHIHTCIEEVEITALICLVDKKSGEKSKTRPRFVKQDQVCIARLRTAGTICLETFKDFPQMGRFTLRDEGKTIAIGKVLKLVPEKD
T4 sequence (Q96SW2 whole entry): as the sequence (Q96SW2 whole entry) above
T4 sequence (Q16531 whole entry partner): as the sequence (Q16531 whole entry partner) above

Cc1nc(C2=CCN(Cc3ccc4c(c3)CN(C3CCC(=O)NC3=O)C4=O)CC2)c2c3c(sc2n1)CCC3 (stereo not shown) [GT-05211, 3-(5-((4-(2-methyl-6,7-dihydro-5H-cyclopenta[4,5]thieno[2,3-d]pyrimidin-4-yl)-3,6-dihydropyridin-1(2H)-yl)methyl)-1-oxoisoindolin-2-yl)piperidine-2,6-dione]
IKZF 1 substrate protein remaining % (IKZF1; [3]): A (0% ≤ substrate protein remaining % ≤ 80%) | Weel substrate protein remaining % (WEE1; [3]): A (0% ≤ substrate protein remaining % ≤ 80%) | IKZF3 substrate protein remaining % (IKZF3; [3]): A (0% ≤ substrate protein remaining % ≤ 80%) | GSPT1 substrate protein remaining % (GSPT1; [3]): A (0% ≤ substrate protein remaining % ≤ 80%) | IKZF2 substrate protein remaining % (IKZF2; [3]): A (0% ≤ substrate protein remaining % ≤ 80%) | IC50 (MM.1S): 50 to 100 nM | IC50 [1]: < 500 nM | CK1a substrate protein remaining % (CK1α; [3]): A (0% ≤ substrate protein remaining % ≤ 80%)

O=C1CCC(N2C(=O)c3ccc(CN4CC=C(c5ncc6ccsc6n5)CC4)cc3C2=O)C(=O)N1 (stereo not shown) [GT-06683, 2-(2,6-dioxopiperidin-3-yl)-5-((4-(thieno[2,3-d]pyrimidin-2-yl)-3,6-dihydropyridin-1(2H)-yl)methyl)isoindoline-1,3-dione]
IKZF 1 substrate protein remaining % (IKZF1; [4]): A (0% ≤ substrate protein remaining % ≤ 80%) | Weel substrate protein remaining % (WEE1; [4]): A (0% ≤ substrate protein remaining % ≤ 80%) | IKZF3 substrate protein remaining % (IKZF3; [4]): A (0% ≤ substrate protein remaining % ≤ 80%) | IC50 (CCRF-CEM): 500 to 1000 nM | GSPT1 substrate protein remaining % (GSPT1; [4]): A (0% ≤ substrate protein remaining % ≤ 80%) | IKZF2 substrate protein remaining % (IKZF2; [4]): A (0% ≤ substrate protein remaining % ≤ 80%) | IC50 [2]: 500 to 1000 nM | IC50 (MV-4-11): 100 to 500 nM | CK1a substrate protein remaining % (CK1α; [4]): B (80%< substrate protein remaining %≤ 100%)

O=C1CCC(N2C(=O)c3ccc(CN4CC=C(c5cncc(Cl)c5)CC4)cc3C2=O)C(=O)N1 (stereo not shown) [GT-06611, 5-((5-chloro-3',6'-dihydro-[3,4'-bipyridin]-1'(2'H)-yl)methyl)-2-(2,6-dioxopiperidin-3-yl)isoindoline-1,3-dione]
IKZF 1 substrate protein remaining % (IKZF1; [4]): A (0% ≤ substrate protein remaining % ≤ 80%) | Weel substrate protein remaining % (WEE1; [4]): A (0% ≤ substrate protein remaining % ≤ 80%) | IKZF3 substrate protein remaining % (IKZF3; [4]): A (0% ≤ substrate protein remaining % ≤ 80%) | IC50 (CCRF-CEM): 100 to 500 nM | GSPT1 substrate protein remaining % (GSPT1; [4]): A (0% ≤ substrate protein remaining % ≤ 80%) | IKZF2 substrate protein remaining % (IKZF2; [4]): A (0% ≤ substrate protein remaining % ≤ 80%) | IC50 [2]: 500 to 1000 nM | IC50 (MV-4-11): 100 to 500 nM | CK1a substrate protein remaining % (CK1α; [4]): A (0% ≤ substrate protein remaining % ≤ 80%)

Cc1nc(C2=CCN(Cc3ccc4c(c3)C(=O)N(C3CCC(=O)NC3=O)C4=O)CC2)c2ccsc2n1 (stereo not shown) [GT-06678, 2-(2,6-dioxopiperidin-3-yl)-5-((4-(2-methylthieno[2,3-d]pyrimidin-4-yl)-3,6-dihydropyridin-1(2H)-yl)methyl)isoindoline-1,3-dione]
IKZF 1 substrate protein remaining % (IKZF1; [4]): A (0% ≤ substrate protein remaining % ≤ 80%) | Weel substrate protein remaining % (WEE1; [4]): A (0% ≤ substrate protein remaining % ≤ 80%) | IKZF3 substrate protein remaining % (IKZF3; [4]): A (0% ≤ substrate protein remaining % ≤ 80%) | IC50 (CCRF-CEM): 100 to 500 nM | GSPT1 substrate protein remaining % (GSPT1; [4]): A (0% ≤ substrate protein remaining % ≤ 80%) | IKZF2 substrate protein remaining % (IKZF2; [4]): B (80%< substrate protein remaining %≤ 100%) | IC50 [2]: 100 to 500 nM | IC50 (MV-4-11): 100 to 500 nM | CK1a substrate protein remaining % (CK1α; [4]): A (0% ≤ substrate protein remaining % ≤ 80%)

O=C1CCC(N2C(=O)c3ccc(CN4CC=C(c5ccnc(Cl)c5Cl)CC4)cc3C2=O)C(=O)N1 (stereo not shown) [GT-06616, 5-((2',3'-dichloro-3,6-dihydro-[4,4'-bipyridin]-1(2H)-yl)methyl)-2-(2,6-dioxopiperidin-3-yl)isoindoline-1,3-dione]
IKZF 1 substrate protein remaining % (IKZF1; [4]): A (0% ≤ substrate protein remaining % ≤ 80%) | Weel substrate protein remaining % (WEE1; [4]): A (0% ≤ substrate protein remaining % ≤ 80%) | IKZF3 substrate protein remaining % (IKZF3; [4]): A (0% ≤ substrate protein remaining % ≤ 80%) | IC50 (CCRF-CEM): 500 to 1000 nM | GSPT1 substrate protein remaining % (GSPT1; [4]): A (0% ≤ substrate protein remaining % ≤ 80%) | IKZF2 substrate protein remaining % (IKZF2; [4]): B (80%< substrate protein remaining %≤ 100%) | IC50 [2]: 500 to 1000 nM | IC50 [1]: 1500 to 1900 nM | IC50 (MV-4-11): 100 to 500 nM | CK1a substrate protein remaining % (CK1α; [4]): A (0% ≤ substrate protein remaining % ≤ 80%)

O=C1CCC(N2C(=O)c3ccc(CN4CC=C(c5c[nH]c6ncccc56)CC4)cc3C2=O)C(=O)N1 (stereo not shown) [GT-06706, 5-((4-(1H-pyrrolo[2,3-b]pyridin-3-yl)-3,6-dihydropyridin-1(2H)-yl)methyl)-2-(2,6-dioxopiperidin-3-yl)isoindoline-1,3-dione]
IKZF 1 substrate protein remaining % (IKZF1; [4]): A (0% ≤ substrate protein remaining % ≤ 80%) | Weel substrate protein remaining % (WEE1; [4]): A (0% ≤ substrate protein remaining % ≤ 80%) | IKZF3 substrate protein remaining % (IKZF3; [4]): A (0% ≤ substrate protein remaining % ≤ 80%) | IC50 (CCRF-CEM): 500 to 1000 nM | GSPT1 substrate protein remaining % (GSPT1; [4]): A (0% ≤ substrate protein remaining % ≤ 80%) | IKZF2 substrate protein remaining % (IKZF2; [4]): A (0% ≤ substrate protein remaining % ≤ 80%) | IC50 [2]: 500 to 1000 nM | IC50 (MV-4-11): 100 to 500 nM | CK1a substrate protein remaining % (CK1α; [4]): A (0% ≤ substrate protein remaining % ≤ 80%)

O=C1CCC(N2C(=O)c3ccc(CN4C5CCC4CN(c4cccc(Cl)c4Cl)C5)cc3C2=O)C(=O)N1 (stereo not shown) [GT-06694, 5-((3-(2,3-dichlorophenyl)-3,8-diazabicyclo[3.2.1]octan-8-yl)methyl)-2-(2,6-dioxopiperidin-3-yl)isoindoline-1,3-dione]
IKZF 1 substrate protein remaining % (IKZF1; [4]): B (80%< substrate protein remaining %≤ 100%) | Weel substrate protein remaining % (WEE1; [4]): A (0% ≤ substrate protein remaining % ≤ 80%) | IKZF3 substrate protein remaining % (IKZF3; [4]): B (80%< substrate protein remaining %≤ 100%) | IC50 (CCRF-CEM): 500 to 1000 nM | GSPT1 substrate protein remaining % (GSPT1; [4]): A (0% ≤ substrate protein remaining % ≤ 80%) | IKZF2 substrate protein remaining % (IKZF2; [4]): A (0% ≤ substrate protein remaining % ≤ 80%) | IC50 [2]: 500 to 1000 nM | IC50 (MV-4-11): 100 to 500 nM | CK1a substrate protein remaining % (CK1α; [4]): B (80%< substrate protein remaining %≤ 100%)

O=C1CCC(N2C(=O)c3ccc(CN4CC=C(c5cncc(Cl)c5Cl)CC4)cc3C2=O)C(=O)N1 (stereo not shown) [GT-06609, 5-((4,5-dichloro-3',6'-dihydro-[3,4'-bipyridin]-1'(2'H)-yl)methyl)-2-(2,6-dioxopiperidin-3-yl)isoindoline-1,3-dione]
IKZF 1 substrate protein remaining % (IKZF1; [4]): A (0% ≤ substrate protein remaining % ≤ 80%) | Weel substrate protein remaining % (WEE1; [4]): A (0% ≤ substrate protein remaining % ≤ 80%) | IKZF3 substrate protein remaining % (IKZF3; [4]): A (0% ≤ substrate protein remaining % ≤ 80%) | IC50 (CCRF-CEM): 100 to 500 nM | IC50 (Jurkat): 100 to 500 nM | GSPT1 substrate protein remaining % (GSPT1; [4]): A (0% ≤ substrate protein remaining % ≤ 80%) | IKZF2 substrate protein remaining % (IKZF2; [4]): A (0% ≤ substrate protein remaining % ≤ 80%) | IC50 [2]: 100 to 500 nM | IC50 [1]: 500 to 1000 nM | IC50 (MV-4-11): 100 to 500 nM | CK1a substrate protein remaining % (CK1α; [4]): B (80%< substrate protein remaining %≤ 100%)

O=C1CCC(N2C(=O)c3ccc(CN4CC=C(c5ncccc5F)CC4)cc3C2=O)C(=O)N1 (stereo not shown) [GT-06612, 2-(2,6-dioxopiperidin-3-yl)-5-((3-fluoro-3',6'-dihydro-[2,4'-bipyridin]-1'(2'H)-yl)methyl)isoindoline-1,3-dione]
IKZF 1 substrate protein remaining % (IKZF1; [4]): A (0% ≤ substrate protein remaining % ≤ 80%) | Weel substrate protein remaining % (WEE1; [4]): A (0% ≤ substrate protein remaining % ≤ 80%) | IKZF3 substrate protein remaining % (IKZF3; [4]): A (0% ≤ substrate protein remaining % ≤ 80%) | IC50 (CCRF-CEM): 500 to 1000 nM | GSPT1 substrate protein remaining % (GSPT1; [4]): A (0% ≤ substrate protein remaining % ≤ 80%) | IKZF2 substrate protein remaining % (IKZF2; [4]): A (0% ≤ substrate protein remaining % ≤ 80%) | IC50 [2]: 500 to 1000 nM | IC50 (MV-4-11): 500 to 1000 nM | CK1a substrate protein remaining % (CK1α; [4]): A (0% ≤ substrate protein remaining % ≤ 80%)

Cc1nc(C2=CCN(Cc3ccc4c(c3)C(=O)N(C3CCC(=O)NC3=O)C4=O)CC2)c2c3c(sc2n1)CCCC3 (stereo not shown) [GT-06679, 2-(2,6-dioxopiperidin-3-yl)-5-((4-(2-methyl-5,6,7,8-tetrahydrobenzo[4,5]thieno[2,3-d]pyrimidin-4-yl)-3,6-dihydropyridin-1(2H)-yl)methyl)isoindoline-1,3-dione]
IKZF 1 substrate protein remaining % (IKZF1; [4]): B (80%< substrate protein remaining %≤ 100%) | Weel substrate protein remaining % (WEE1; [4]): A (0% ≤ substrate protein remaining % ≤ 80%) | IKZF3 substrate protein remaining % (IKZF3; [4]): A (0% ≤ substrate protein remaining % ≤ 80%) | GSPT1 substrate protein remaining % (GSPT1; [4]): B (80%< substrate protein remaining %≤ 100%) | IKZF2 substrate protein remaining % (IKZF2; [4]): B (80%< substrate protein remaining %≤ 100%) | IC50 [1]: 1500 to 1900 nM | IC50 (MV-4-11): 100 to 500 nM | CK1a substrate protein remaining % (CK1α; [4]): B (80%< substrate protein remaining %≤ 100%)
